Experimental data: patent US20100267561A1, “HERBICIDAL PYRIDAZINONE DERIVATIVES” (priority 2007, published 2010)

Legend:
Experiment in all cases: Test B pre-/postemergence plant response
Format in all cases: in vivo
[1] = test system: giant foxtail (Setaria faberii)
Method in brief: (§1)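 Preemergence and postemergence (plants 2-18 cm, 1- to 4-leaf stage) applications used test chemicals in a non-phytotoxic solvent with surfactant. Plants were held in a greenhouse 13 to 15 days, then rated visually against controls on a 0-100 scale (0 no effect, 100 complete control).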

[2] = test system: common ragweed (Ambrosia elation)
Method in brief: as §1

kochia (Kochia scoparia) = test system: kochia (Kochia scoparia)
Method in brief: as §1

[3] = test system: pigweed (Amaranthus retroflexus)
Method in brief: as §1

[4] = test system: Italian ryegrass (Lolium multiflorum)
Method in brief: as §1

[5] = test system: green foxtail (Setaria viridis)
Method in brief: as §1

[6] = test system: goosegrass (Eleusine indica)
Method in brief: as §1

corn (Zea mays) = test system: corn (Zea mays)
Method in brief: as §1

[7] = test system: yellow nutsedge (Cyperus esculentus)
Method in brief: as §1

[8] = test system: johnsongrass (Sorghum halepense)
Method in brief: as §1

[9] = test system: surinam grass (Brachiaria decumbens)
Method in brief: as §1

[10] = test system: eastern black (E.B.) nightshade (Solanum ptycanthum); details: Preemergence
Method in brief: as §1

[11] = test system: common (oilseed) sunflower (Helianthus annuus); details: Preemergence
Method in brief: as §1

[12] = 8 g ai/ha, postemergence, 0-100 scale
[13] = Postemergence, 16 g ai/ha, scale 0 to 100
[14] = Postemergence, 31 g ai/ha, scale 0 to 100
[15] = Postemergence, 62 g ai/ha, scale 0 to 100, 0 no effect, 100 complete control
[16] = 16 g ai/ha, postemergence, 0-100 scale
[17] = Preemergence, 8 g ai/ha, scale 0 to 100 (0 no effect, 100 complete control)
[18] = Preemergence, 31 g ai/ha, scale 0 to 100 (0 no effect, 100 complete control)
[19] = Preemergence, 62 g ai/ha, 0 to 100 scale, 0 no effect, 100 complete control
[20] = Preemergence, 16 g ai/ha, scale 0 to 100
[21] = 8 g ai/ha, scale 0 to 100 (0 no effect, 100 complete control)
[22] = 31 g ai/ha, scale 0 to 100 (0 no effect, 100 complete control)
[23] = 62 g ai/ha, 0 to 100 scale, 0 no effect, 100 complete control

## Cc1nn(C)c(=O)c(-n2nc(-c3ccc(Cl)cc3)cc2Cl)c1O [Compound 59]
[1]; [12]
  Foxtail, Giant plant response rating: 80
[1]; [13]
  Plant response rating, Foxtail, Giant: 85
[1]; [14]
  Plant response rating, Foxtail, Giant: 90
[1]; [15]
  Plant response rating, Foxtail, Giant: 95
[2]; [12]
  Ragweed plant response rating: 0
[2]; [13]
  Plant response rating, Ragweed: 0
[2]; [14]
  Plant response rating, Ragweed: 0
[2]; [15]
  Plant response rating, Ragweed: 0
Kochia (Kochia scoparia); [12]
  Kochia plant response rating: 0
Kochia (Kochia scoparia); [13]
  Plant response rating, Kochia: 0
Kochia (Kochia scoparia); [14]
  Plant response rating, Kochia: 0
Kochia (Kochia scoparia); [15]
  Plant response rating, Kochia: 0
[3]; [12]
  Pigweed plant response rating: 0
[3]; [13]
  Plant response rating, Pigweed: 0
[3]; [14]
  Plant response rating, Pigweed: 0
[3]; [15]
  Plant response rating, Pigweed: 0
[4]; [12]
  Ryegrass, Italian plant response rating: 80
[4]; [13]
  Plant response rating, Ryegrass, Italian: 80
[4]; [14]
  Plant response rating, Ryegrass, Italian: 85
[4]; [15]
  Plant response rating, Ryegrass, Italian: 85
[5]; [12]
  Foxtail, Green plant response rating: 50
[5]; [13]
  Plant response rating, Foxtail, Green: 90
[5]; [14]
  Plant response rating, Foxtail, Green: 90
[5]; [15]
  Plant response rating, Foxtail, Green: 95
[6]; [12]
  Goosegrass plant response rating: 0
[6]; [13]
  Plant response rating, Goosegrass: 0
[6]; [14]
  Plant response rating, Goosegrass: 0
[6]; [15]
  Plant response rating, Goosegrass: 0
Corn (Zea mays); [12]
  Corn plant response rating: 0
Corn (Zea mays); [13]
  Plant response rating, Corn: 85
Corn (Zea mays); [14]
  Plant response rating, Corn: 85
Corn (Zea mays); [15]
  Plant response rating, Corn: 90
[7]; [12]
  Nutsedge, Yellow plant response rating: 0
[7]; [13]
  Plant response rating, Nutsedge, Yellow: 0
[7]; [14]
  Plant response rating, Nutsedge, Yellow: 0
[7]; [15]
  Plant response rating, Nutsedge, Yellow: 0
[8]; [12]
  Johnsongrass plant response rating: 0
[8]; [13]
  Plant response rating, Johnsongrass: 0
[8]; [14]
  Plant response rating, Johnsongrass: 60
[8]; [15]
  Plant response rating, Johnsongrass: 80
[9]; [12]
  Surinam Grass plant response rating: 75
[9]; [13]
  Plant response rating, Surinam Grass: 85
[9]; [14]
  Plant response rating, Surinam Grass: 90
[9]; [15]
  Plant response rating, Surinam Grass: 100

## CCc1c(C)c(-c2ccc(Br)cc2)nn1-c1c(O)cnn(C)c1=O [Compound 83]
[1]; [12]
  Foxtail, Giant plant response rating: 80
[1]; [16]
  Foxtail, Giant plant response rating: 90
[1]; [14]
  Plant response rating, Foxtail, Giant: 100
[1]; [15]
  Plant response rating, Foxtail, Giant: 100
[1]; [17]
  Foxtail, Giant plant response rating: 80
[1]; [18]
  Plant response rating, Foxtail, Giant: 100
[1]; [19]
  Plant response rating, Foxtail, Giant: 100
[1]; [20]
  Foxtail, Giant plant response rating: 100
[2]; [12]
  Ragweed plant response rating: 0
[2]; [16]
  Ragweed plant response rating: 0
[2]; [14]
  Plant response rating, Ragweed: 0
[2]; [15]
  Plant response rating, Ragweed: 0
[2]; [17]
  Ragweed plant response rating: 0
[2]; [18]
  Plant response rating, Ragweed: 0
[2]; [19]
  Plant response rating, Ragweed: 0
[2]; [20]
  Ragweed plant response rating: 0
Kochia (Kochia scoparia); [12]
  Kochia plant response rating: 0
Kochia (Kochia scoparia); [16]
  Kochia plant response rating: 0
Kochia (Kochia scoparia); [14]
  Plant response rating, Kochia: 0
Kochia (Kochia scoparia); [15]
  Plant response rating, Kochia: 0
Kochia (Kochia scoparia); [17]
  Kochia plant response rating: 50
Kochia (Kochia scoparia); [18]
  Plant response rating, Kochia: 100
Kochia (Kochia scoparia); [19]
  Plant response rating, Kochia: 100
Kochia (Kochia scoparia); [20]
  Kochia plant response rating: 100
[3]; [12]
  Pigweed plant response rating: 0
[3]; [16]
  Pigweed plant response rating: 0
[3]; [14]
  Plant response rating, Pigweed: 0
[3]; [15]
  Plant response rating, Pigweed: 20
[3]; [17]
  Pigweed plant response rating: 0
[3]; [18]
  Plant response rating, Pigweed: 0
[3]; [19]
  Plant response rating, Pigweed: 0
[3]; [20]
  Pigweed plant response rating: 0
[4]; [12]
  Ryegrass, Italian plant response rating: 85
[4]; [16]
  Ryegrass, Italian plant response rating: 98
[4]; [14]
  Plant response rating, Ryegrass, Italian: 100
[4]; [15]
  Plant response rating, Ryegrass, Italian: 100
[4]; [17]
  Ryegrass, Italian plant response rating: 30
[4]; [18]
  Plant response rating, Ryegrass, Italian: 100
[4]; [19]
  Plant response rating, Ryegrass, Italian: 100
[4]; [20]
  Ryegrass, Italian plant response rating: 85
[5]; [12]
  Foxtail, Green plant response rating: 60
[5]; [16]
  Foxtail, Green plant response rating: 65
[5]; [14]
  Plant response rating, Foxtail, Green: 98
[5]; [15]
  Plant response rating, Foxtail, Green: 100
[5]; [17]
  Foxtail, Green plant response rating: 40
[5]; [18]
  Plant response rating, Foxtail, Green: 80
[5]; [19]
  Plant response rating, Foxtail, Green: 100
[5]; [20]
  Foxtail, Green plant response rating: 70
[6]; [12]
  Goosegrass plant response rating: 0
[6]; [16]
  Goosegrass plant response rating: 45
[6]; [14]
  Plant response rating, Goosegrass: 55
[6]; [15]
  Plant response rating, Goosegrass: 60
[6]; [17]
  Goosegrass plant response rating: 55
[6]; [18]
  Plant response rating, Goosegrass: 95
[6]; [19]
  Plant response rating, Goosegrass: 100
[6]; [20]
  Goosegrass plant response rating: 80
Corn (Zea mays); [12]
  Corn plant response rating: 65
Corn (Zea mays); [16]
  Corn plant response rating: 95
Corn (Zea mays); [14]
  Plant response rating, Corn: 98
Corn (Zea mays); [15]
  Plant response rating, Corn: 100
Corn (Zea mays); [17]
  Corn plant response rating: 0
Corn (Zea mays); [18]
  Plant response rating, Corn: 95
Corn (Zea mays); [19]
  Plant response rating, Corn: 95
Corn (Zea mays); [20]
  Corn plant response rating: 45
[7]; [12]
  Nutsedge, Yellow plant response rating: 0
[7]; [16]
  Nutsedge, Yellow plant response rating: 0
[7]; [14]
  Plant response rating, Nutsedge, Yellow: 0
[7]; [15]
  Plant response rating, Nutsedge, Yellow: 0
[7]; [17]
  Nutsedge, Yellow plant response rating: 0
[7]; [18]
  Plant response rating, Nutsedge, Yellow: 0
[7]; [19]
  Plant response rating, Nutsedge, Yellow: 0
[7]; [20]
  Nutsedge, Yellow plant response rating: 0
[10]; [21]
  Nightshade, E. B. plant response rating: 0
[10]; [22]
  Plant response rating, Nightshade, E. B.: 0
[10]; [23]
  Plant response rating, Nightshade, E. B.: 0
[10]; 16 g ai/ha, scale 0 to 100
  Nightshade, E. B. plant response rating: 0
[8]; [12]
  Johnsongrass plant response rating: 65
[8]; [16]
  Johnsongrass plant response rating: 70
[8]; [14]
  Plant response rating, Johnsongrass: 98
[8]; [15]
  Plant response rating, Johnsongrass: 100
[8]; [17]
  Johnsongrass plant response rating: 55
[8]; [18]
  Plant response rating, Johnsongrass: 95
[8]; [19]
  Plant response rating, Johnsongrass: 98
[8]; [20]
  Johnsongrass plant response rating: 85
[9]; [12]
  Surinam Grass plant response rating: 85
[9]; [16]
  Surinam Grass plant response rating: 100
[9]; [14]
  Plant response rating, Surinam Grass: 100
[9]; [15]
  Plant response rating, Surinam Grass: 100
[9]; [17]
  Surinam Grass plant response rating: 55
[9]; [18]
  Plant response rating, Surinam Grass: 98
[9]; [19]
  Plant response rating, Surinam Grass: 100
[9]; [20]
  Surinam Grass plant response rating: 90
[11]; [21]
  Sunflower plant response rating: 0
[11]; [22]
  Plant response rating, Sunflower: 0
[11]; [23]
  Plant response rating, Sunflower: 0
[11]; 16 g ai/ha, scale 0 to 100
  Sunflower plant response rating: 0

## CCc1cc(-c2ccc(Br)cc2)nn1-c1c(O)cnn(CC(F)(F)F)c1=O [Compound 73]
[1]; [12]
  Foxtail, Giant plant response rating: 30
[1]; [13]
  Plant response rating, Foxtail, Giant: 70
[1]; [14]
  Plant response rating, Foxtail, Giant: 90
[1]; [15]
  Plant response rating, Foxtail, Giant: 100
[2]; [12]
  Ragweed plant response rating: 0
[2]; [16]
  Ragweed plant response rating: 0
[2]; [14]
  Plant response rating, Ragweed: 0
[2]; [15]
  Plant response rating, Ragweed: 0
Kochia (Kochia scoparia); [12]
  Kochia plant response rating: 0
Kochia (Kochia scoparia); [16]
  Kochia plant response rating: 0
Kochia (Kochia scoparia); [14]
  Plant response rating, Kochia: 0
Kochia (Kochia scoparia); [15]
  Plant response rating, Kochia: 0
[3]; [12]
  Pigweed plant response rating: 0
[3]; [16]
  Pigweed plant response rating: 0
[3]; [14]
  Plant response rating, Pigweed: 0
[3]; [15]
  Plant response rating, Pigweed: 0
[4]; [12]
  Ryegrass, Italian plant response rating: 45
[4]; [16]
  Ryegrass, Italian plant response rating: 70
[4]; [14]
  Plant response rating, Ryegrass, Italian: 100
[4]; [15]
  Plant response rating, Ryegrass, Italian: 100
[5]; [12]
  Foxtail, Green plant response rating: 40
[5]; [13]
  Plant response rating, Foxtail, Green: 70
[5]; [14]
  Plant response rating, Foxtail, Green: 70
[5]; [15]
  Plant response rating, Foxtail, Green: 100
[6]; [12]
  Goosegrass plant response rating: 70
[6]; [16]
  Goosegrass plant response rating: 90
[6]; [14]
  Plant response rating, Goosegrass: 90
[6]; [15]
  Plant response rating, Goosegrass: 90
Corn (Zea mays); [12]
  Corn plant response rating: 95
Corn (Zea mays); [13]
  Plant response rating, Corn: 100
Corn (Zea mays); [14]
  Plant response rating, Corn: 100
Corn (Zea mays); [15]
  Plant response rating, Corn: 100
[7]; [12]
  Nutsedge, Yellow plant response rating: 0
[7]; [16]
  Nutsedge, Yellow plant response rating: 0
[7]; [14]
  Plant response rating, Nutsedge, Yellow: 0
[7]; [15]
  Plant response rating, Nutsedge, Yellow: 0
[8]; [12]
  Johnsongrass plant response rating: 70
[8]; [16]
  Johnsongrass plant response rating: 85
[8]; [14]
  Plant response rating, Johnsongrass: 90
[8]; [15]
  Plant response rating, Johnsongrass: 100
[9]; [12]
  Surinam Grass plant response rating: 60
[9]; [16]
  Surinam Grass plant response rating: 90
[9]; [14]
  Plant response rating, Surinam Grass: 90
[9]; [15]
  Plant response rating, Surinam Grass: 100
